Measurements from patent US20230040357A1, “PHARMACEUTICAL COMPOSITION AND HEALTH FUNCTIONAL FOOD FOR PREVENTING, AMELIORATING OR TREATING DIABETES CONTAINING WASP EXTRACT AS ACTIVE INGREDIENT” (Andong National University Industry-Academic cooperation …, priority 2021, published 2023).
Values joined by “and” are separate entries in the source; they are usually repeats but may differ in a detail not shown here. Equal values may be shown once.

System: human erythrocytes
Assay: human erythrocyte hemolytic activity
Assay type: cell-based
Conditions: 37° C., 30 minutes
Procedure: In order to evaluate the acute toxicities of the wasp extracts, the human erythrocyte hemolytic activities of the wasp extracts were evaluated, and the results of the evaluation are shown in Table 3 below. At this time, the hemolytic activity was evaluated according to a previous report (Son Ho-Yong et al., 2014, Korean J. Microbiol. Biotechnol. 42: 285-292). Briefly, 100 μl of human erythrocytes were washed three times with PBS and added to a 96-well microplate, and 100 μl of a sample solution at various concentrations was added thereto and then allowed to react at 37° C. for 30 minutes. Thereafter, the reaction solution was centrifuged at 1,500 rpm for 10 minutes, and 100 μl of the supernatant was transferred to a fresh microtiter plate, and then the degree of hemoglobin leakage following hemolysis was measured at 414 nm. DMSO (2%) was used as a solvent control for the sample, and Triton X-100 (1 mg/ml) was used as an experimental control for hemolysis of erythrocytes. Hemolytic activity was calculated using the following equation.
(%) Hemolysis=[(Abs. S−Abs. C)/(Abs. T−Abs. C)]×100
Abs. S: absorbance of sample-added group
Abs. C: absorbance of DMSO-added group
Abs. T: absorbance of Triton X-100-added group

Row | Compound | Human erythrocyte hemolytic activity (1.0 mg/ml) | Human erythrocyte hemolytic activity (0.0032 mg/ml) [%] | Human erythrocyte hemolytic activity (0.0063 mg/ml) [%] | Human erythrocyte hemolytic activity (0.0125 mg/ml) [%] | Human erythrocyte hemolytic activity (0.05 mg/ml) [%] | Human erythrocyte hemolytic activity (0.1 mg/ml) [%]
1 | Triton X-100 | 100% and 100.0 ± 0.1% | – | – | – | – | –
2 | C[C@@H]1[C@H](O)[C@@H](C)/C=C/C=C/C=C/C=C/C=C/C=C/C=C/[C@H](O[C@@H]2O[C@H](C)[C@@H](O)[C@H](N)[C@@H]2O)C[C@@H]2O[C@](O)(C[C@@H](O)C[C@@H](O)[C@H](O)CC[C@@H](O)C[C@@H](O)CC(=O)O[C@H]1C)C[C@H](O)[C@H]2C(=O)O [Amphotericin B] | – | 6.54 ± 0.9 | 21.6 ± 3.7 | 48.2 ± 5.9 | 72.4 ± 5.2 | 95.8 ± 0.3
